Reference: patent US12011444B2, “N-substituted indole derivatives as PGE2 receptor modulators” (Idorsia Pharmaceuticals Ltd, priority 2015, dated 2024)

Assays:
[1] = target: PTRGER4 (EP4) (Homo sapiens (Human), UniProt P35408); experiment: hEP4 b-arrestin assay (PathHunter HEK 293 PTGER4 b-arrestin cells); type: cell-based
Description: (§1) The assay is using the PathHunter™ HEK 293 PTGER2 and PTGER4 b-arrestin cell lines from DiscoverX. The system is based on the Enzyme Fragment Complementation Technology. Two complementing fragments of the b-galactosidase enzyme are expressed within stably transfected cells. The larger portion of b-gal, termed EA for Enzyme Acceptor, is fused to the C-terminus of b-arrestin 2. The smaller fragment, termed ProLink™ tag, is fused to PTGER2 (EP2) or PTRGER4 (EP4) at the C-terminus. Upon activation, b-arrestin is recruited which forces the interaction of ProLink and EA, allowing complementation of the two fragments of b-gal and the formation of a functional enzyme which is capable of hydrolysing the substrate and generating a chemiluminescent signal.
(§2) 5000 cells per well of a 384 well plate (white with white bottom Greiner 781080) are seeded in 20 ul per well of GM. Plate is incubated at 37° C., 5% C02 for 24 hours.
Plate is pre-incubated 15 minutes at 37° C. Then five microliters of PGE2 (final conc. 20 nM) are transferred into the assay plate. Plate is incubated 120 minutes at 37° C.
(§3) Twelve μl of reagent are transferred to the assay plate and incubate for 1 hour at room temperature in the dark. Luminescence counts are read on a BMG Fluostar Optima reader according to manufacturer's instructions. For each compound concentration calculate of the percentage of activity compared to DMSO control value as average±STDEV.

[2] = target: PTGER2 (EP2) (Homo sapiens (Human), UniProt P43116); experiment: hEP2 b-arrestin assay (PathHunter HEK 293 PTGER2 b-arrestin cells); type: cell-based
Sequence of PTGER2 (EP2) (P43116 whole entry): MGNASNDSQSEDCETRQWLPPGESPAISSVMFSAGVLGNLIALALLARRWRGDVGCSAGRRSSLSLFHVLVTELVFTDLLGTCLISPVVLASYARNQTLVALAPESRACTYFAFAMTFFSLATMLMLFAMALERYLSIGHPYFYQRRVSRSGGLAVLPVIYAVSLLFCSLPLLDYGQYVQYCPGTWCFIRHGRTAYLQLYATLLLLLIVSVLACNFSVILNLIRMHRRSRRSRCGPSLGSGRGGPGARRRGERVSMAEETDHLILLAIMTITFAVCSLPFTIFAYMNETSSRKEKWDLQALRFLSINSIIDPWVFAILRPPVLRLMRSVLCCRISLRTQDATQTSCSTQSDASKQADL
Description: as §1, §2
Plate is pre-incubated 15 minutes at 37° C. Then five microliters of PGE2 (final conc. 5 μM) are transferred into the assay plate. Plate is incubated 120 minutes at 37° C.
as §3, with “average±STDEV. (each concentration is measured in duplicate)” for “average±STDEV.”

[3] = antagonistic activity on hEP4, mean where measured multiple times
[4] = antagonistic activity on hEP2, mean where measured multiple times
[5] = hEP4 b-arrestin assay (values without asterisk)
[6] = hEP2 b-arrestin assay (values without asterisk)

Sequence of PTRGER4 (EP4) (P35408 whole entry, looked up, the tested form may be a part): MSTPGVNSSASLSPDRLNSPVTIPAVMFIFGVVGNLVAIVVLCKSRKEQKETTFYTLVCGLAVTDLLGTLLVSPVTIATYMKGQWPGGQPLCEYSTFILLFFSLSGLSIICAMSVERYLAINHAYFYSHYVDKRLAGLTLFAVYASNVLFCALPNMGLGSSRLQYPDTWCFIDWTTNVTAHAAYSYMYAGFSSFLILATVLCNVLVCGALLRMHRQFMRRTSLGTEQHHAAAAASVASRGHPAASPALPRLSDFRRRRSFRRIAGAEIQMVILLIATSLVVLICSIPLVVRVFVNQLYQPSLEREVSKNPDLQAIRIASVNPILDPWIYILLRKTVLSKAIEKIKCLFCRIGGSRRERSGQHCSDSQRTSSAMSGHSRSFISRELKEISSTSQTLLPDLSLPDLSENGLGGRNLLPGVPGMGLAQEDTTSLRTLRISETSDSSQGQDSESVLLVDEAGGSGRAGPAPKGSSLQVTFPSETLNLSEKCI

With `COc1cccc2c1cc(C)n2CCNc1cc(-c2ccc(-c3cc(N)no3)cc2)ncn1` [compound 180, {6-[4-(3-Amino-isoxazol-5-yl)-phenyl]-pyrimidin-4-yl}-[2-(4-methoxy-2-methyl-indol-1-yl)-ethyl]-amine] the IC50 [1, 3] was 16 nM and the IC50 [2, 4] was 3 nM.

Compound `COc1ccc(F)c2c1cc(C#N)n2CCNc1cc(-c2ccc(-c3c[nH]c(C4CC4)n3)cc2)ncn1` [Example 863, 1-(2-{6-[4-(2-Cyclopropyl-1H-imidazol-4-yl)-phenyl]-pyrimidin-4-ylamino}-ethyl)-7-fluoro-4-methoxy-1H-indole-2-carbonitrile] has an IC50 [1, 5] of 3 nM and an IC50 [2, 6] of 5 nM.

`CCOc1cc(-c2cc(NCCn3c(C#N)cc4c(OC)ccc(F)c43)ncn2)sc1C(=O)NS(=O)(=O)C(C)C` [Example 815, Propane-2-sulfonic acid (5-{6-[2-(2-cyano-7-fluoro-4-methoxy-indol-1-yl)-ethylamino]-pyrimidin-4-yl}-3-ethoxy-thiophene-2-carbonyl)-amide] gave an IC50 [1, 5] of 7 nM and an IC50 [2, 6] of 8 nM.

Work on `Cc1ccc(F)c2c1cc(C)n2CCNc1cc(-c2ccc3c(c2)CC(=O)N3)ncn1` [compound 64, 5-{6-[2-(7-Fluoro-2,4-dimethyl-indol-1-yl)-ethylamino]-pyrimidin-4-yl}-1,3-dihydro-indol-2-one] yielded an IC50 [1, 3] of 231 nM and an IC50 [2, 4] of 47 nM.

With `COc1ccc(F)c2c1cc(C#N)n2CCNc1cc(-c2ccc(-c3cn(C)c(C4CC4)n3)cc2)ncn1` [Example 827, 1-(2-{6-[4-(2-Cyclopropyl-1-methyl-1H-imidazol-4-yl)-phenyl]-pyrimidin-4-ylamino}-ethyl)-7-fluoro-4-methoxy-1H-indole-2-carbonitrile] the IC50 [1, 5] was 7 nM and the IC50 [2, 6] was 16 nM.

`COc1ccc(F)c2c1cc(C)n2CCNc1cc(-c2ccc(C(=O)O)c([N+](=O)[O-])c2)ncn1` [compound 394] showed an IC50 [1, 3] of 296 nM and an IC50 [2, 4] of 15 nM.

Compound `CCCOc1cc(-c2cc(NCCn3c(C#N)cc4c(OC)ccc(F)c43)ncn2)ccc1C(=O)O` [Example 950, 4-{6-[2-(2-Cyano-7-fluoro-4-methoxy-indol-1-yl)-ethylamino]-pyrimidin-4-yl}-2-propoxy-benzoic acid] has an IC50 [1, 5] of 42 nM and an IC50 [2, 6] of 18 nM.

With `COc1ccc(F)c2c1cc(C)n2CCNc1cc(-c2ccc(C(=O)O)c(OCC(F)(F)F)c2)ncn1` [Example 844, 4-{6-[2-(7-Fluoro-4-methoxy-2-methyl-indol-1-yl)-ethylamino]-pyrimidin-4-yl}-2-(2,2,2-trifluoro-ethoxy)-benzoic acid] the IC50 [1, 5] was 142 nM and the IC50 [2, 6] was 5 nM.

`N#Cc1cc2c(Cl)cccc2n1CCNc1cc(-c2cc(Cl)c(C(=O)O)s2)ncn1` [Example 1020, 3-Chloro-5-{6-[2-(4-chloro-2-cyano-indol-1-yl)-ethylamino]-pyrimidin-4-yl}-thiophene-2-carboxylic acid] showed an IC50 [1, 5] of 29 nM and an IC50 [2, 6] of 2 nM.

Compound `COc1ccc(F)c2c1cc(C)n2CCNc1cc(-c2cnc(N3CCOCC3)s2)ncn1` [compound 181] has an IC50 [1, 3] of 864 nM and an IC50 [2, 4] of 173 nM.

Compound `CCCOc1cc(-c2cc(NCCn3c(C#N)cc4c(OC)ccc(F)c43)ncn2)ccc1CC(=O)O` [Example 833, (4-{6-[2-(2-Cyano-7-fluoro-4-methoxy-indol-1-yl)-ethylamino]-pyrimidin-4-yl}-2-propoxy-phenyl)-acetic acid] has an IC50 [1, 5] of 27 nM and an IC50 [2, 6] of 62 nM.

`CCOc1cc(-c2cc(NCCn3c(C)cc4c(Cl)cccc43)ncn2)ccc1C(=O)O` [compound 234] gave an IC50 [1, 3] of 249 nM and an IC50 [2, 4] of 3 nM.

In the case of `Cc1cc(F)cc2c1cc(C)n2CCNc1cc(-c2ccc(-c3ccns3)cc2)ncn1` [compound 84], the IC50 [1, 3] is reported as 310 nM and the IC50 [2, 4] is reported as 89 nM.

With `COc1ccc(F)c2c1cc(C#N)n2CCNc1cc(-c2cc3ccccc3[nH]2)ncn1` [Example 961, 7-Fluoro-1-{2-[6-(1H-indol-2-yl)-pyrimidin-4-ylamino]-ethyl}-4-methoxy-1H-indole-2-carbonitrile] the IC50 [1, 5] was 34 nM and the IC50 [2, 6] was 12 nM.

`COc1cccc2c1cc(C)n2CCNc1cc(-c2ccc(CO)c(F)c2)ncn1` [compound 17, (2-Fluoro-4-{6-[2-(4-methoxy-2-methyl-indol-1-yl)-ethylamino]-pyrimidin-4-yl}-phenyl)-methanol] gave an IC50 [1, 3] of 174 nM and an IC50 [2, 4] of 12 nM.

Work on `CNc1nnc(-c2ccc(-c3cc(NCCn4c(C)cc5ccccc54)ncn3)cc2)s1` [compound 387] yielded an IC50 [1, 3] of 556 nM and an IC50 [2, 4] of 2 nM.

For `CCOc1cc(-c2cc(NCCn3c(C#N)cc4c(Cl)cc(F)c(F)c43)ncn2)ccc1OCC(=O)O` [Example 914, (4-{6-[2-(4-Chloro-2-cyano-6,7-difluoro-indol-1-yl)-ethylamino]-pyrimidin-4-yl}-2-ethoxy-phenoxy)-acetic acid], the IC50 [1, 5] was 68 nM and the IC50 [2, 6] was 32 nM.

Compound `CCOc1cc(-c2cc(NCCn3c(C)cc4ccccc43)ncn2)sc1C(=O)O` [compound 50] has an IC50 [1, 3] of 161 nM and an IC50 [2, 4] of 1 nM.

For `COc1ccc(F)c2c1cc(C)n2CCNc1cc(-c2ccc(C(=O)O)c(OC3CC4(COC4)C3)c2)ncn1` [Example 1039, 4-{6-[2-(7-Fluoro-4-methoxy-2-methyl-indol-1-yl)-ethylamino]-pyrimidin-4-yl}-2-(2-oxaspiro[3.3]hept-6-yloxy)-benzoic acid], the IC50 [1, 5] was 224 nM and the IC50 [2, 6] was 104 nM.

`CCCNc1cc(-c2cc(NCCn3c(C)cc4c(C)ccc(F)c43)ncn2)ccc1C(=O)O` [compound 356, 4-{6-[2-(7-Fluoro-2,4-dimethyl-indol-1-yl)-ethylamino]-pyrimidin-4-yl}-2-propylamino-benzoic acid] gave an IC50 [1, 3] of 165 nM and an IC50 [2, 4] of 15 nM.

Work on `Cc1ccc(F)c2c1cc(C)n2CCNc1cc(-c2ccc(-n3cccn3)cc2)ncn1` [compound 73] yielded an IC50 [1, 3] of 970 nM and an IC50 [2, 4] of 214 nM.

Work on `COc1ccc(F)c2c1cc(C#N)n2CCNc1cc(-c2ccc(C(=O)O)c(CC(C)C)c2)ncn1` [Example 946, 4-{6-[2-(2-Cyano-7-fluoro-4-methoxy-indol-1-yl)-ethylamino]-pyrimidin-4-yl}-2-isobutyl-benzoic acid] yielded an IC50 [1, 5] of 10 nM and an IC50 [2, 6] of 54 nM.

For `COc1ccc(F)c2c1cc(C#N)n2CCNc1cc(-c2ccc3c(=O)[nH]n(C)c3c2)ncn1` [Example 921, 7-Fluoro-4-methoxy-1-{2-[6-(1-methyl-3-oxo-2,3-dihydro-1H-indazol-6-yl)-pyrimidin-4-ylamino]-ethyl}-1H-indole-2-carbonitrile], the IC50 [1, 5] was 9 nM and the IC50 [2, 6] was 6 nM.

In the case of `COc1ccc(F)c2c1cc(C)n2CCNc1cc(-c2ccc(S(=O)(=O)O)cc2)ncn1` [compound 116, 4-{6-[2-(7-Fluoro-4-methoxy-2-methyl-indol-1-yl)-ethylamino]-pyrimidin-4-yl}-benzenesulfonic acid], the IC50 [1, 3] is reported as 382 nM and the IC50 [2, 4] is reported as 19 nM.

Work on `Cc1cc2c(Cl)cccc2n1CCNc1cc(-c2ccc(C(=O)O)c(C3CC3)c2)ncn1` [compound 169] yielded an IC50 [1, 3] of 543 nM and an IC50 [2, 4] of 8 nM.

Work on `COc1ccc(F)c2c1cc(C)n2CCNc1cc(-c2ccc(-c3nc(C)no3)cc2)ncn1` [compound 302, [2-(7-Fluoro-4-methoxy-2-methyl-indol-1-yl)-ethyl]-{6-[4-(3-methyl-[1,2,4]oxadiazol-5-yl)-phenyl]-pyrimidin-4-yl}-amine] yielded an IC50 [1, 3] of 145 nM and an IC50 [2, 4] of 33 nM.

`CCc1cc(-c2cc(NCCn3c(C)cc4c(OC)cccc43)ncn2)sc1C(=O)O` [compound 110] gave an IC50 [1, 3] of 46 nM and an IC50 [2, 4] of 3 nM.
